# Where “and” joins values, the source holds several entries; their conditions need not be identical. Identical values can stand only once.
# Molecular target: Mitogen-activated protein kinase kinase kinase kinase 1 (Homo sapiens, UniProt Q92918)
# Test: HPK1-SLP76 TR-FRET ASSAY
# Sequence of Mitogen-activated protein kinase kinase kinase kinase 1 (Q92918 whole entry): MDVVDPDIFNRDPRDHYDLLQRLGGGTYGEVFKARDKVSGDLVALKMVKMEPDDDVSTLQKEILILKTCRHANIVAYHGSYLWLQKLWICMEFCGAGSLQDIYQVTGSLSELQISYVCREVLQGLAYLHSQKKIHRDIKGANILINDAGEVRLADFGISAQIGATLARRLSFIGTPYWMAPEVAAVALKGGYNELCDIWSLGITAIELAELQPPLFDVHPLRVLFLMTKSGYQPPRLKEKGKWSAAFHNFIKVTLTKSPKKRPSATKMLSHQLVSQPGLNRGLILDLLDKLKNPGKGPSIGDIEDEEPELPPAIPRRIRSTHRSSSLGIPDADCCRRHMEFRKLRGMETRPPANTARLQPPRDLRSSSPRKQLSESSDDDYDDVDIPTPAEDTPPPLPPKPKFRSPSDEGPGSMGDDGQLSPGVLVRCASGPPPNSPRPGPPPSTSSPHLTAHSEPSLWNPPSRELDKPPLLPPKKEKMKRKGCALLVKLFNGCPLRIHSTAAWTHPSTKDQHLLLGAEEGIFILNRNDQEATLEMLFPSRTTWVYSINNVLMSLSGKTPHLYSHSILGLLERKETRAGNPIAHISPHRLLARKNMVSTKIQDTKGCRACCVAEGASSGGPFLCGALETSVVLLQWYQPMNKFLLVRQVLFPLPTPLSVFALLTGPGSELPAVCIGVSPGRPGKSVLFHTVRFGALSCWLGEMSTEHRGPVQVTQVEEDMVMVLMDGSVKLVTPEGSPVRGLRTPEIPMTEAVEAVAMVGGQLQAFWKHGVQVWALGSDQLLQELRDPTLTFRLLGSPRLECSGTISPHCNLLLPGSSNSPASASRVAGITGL
row,Structure (SMILES),IC50
1,"Cc1c(-c2cc3nc(Nc4ccc([C@H](C)S(C)(=O)=O)cc4)ncc3c(N)c2F)cnc2c1NCCO2 [WO2022098806, Compound 2-62]",0.06 nM
2,"Cc1c(-c2cc3nc(Nc4ccc([C@@H](C)S(C)(=O)=O)cc4)ncc3c(N)c2F)cnc2c1NCCO2 [WO2022098806, Compound 2-63]",0.09 nM
3,"COc1cc2c(cc1Nc1ncc3c(N)c(F)c(-c4ccccc4-c4ccnn4C)cc3n1)CN(C)CC2 [WO2022098806, Compound 2-65]",17 nM
4,"Cc1c(-c2cc3nc(Nc4ccc(N5CCOC5=O)cc4)ncc3c(N)c2F)cnc2c1NCCO2 [WO2022098806, Compound 2-67]",0.05 nM
5,"COc1nc(C2(C#N)CC2)ccc1Nc1ncc2c(N)c(F)c(-c3cnc4c(c3C)NCCO4)cc2n1 [WO2022098806, Compound 2-68]",14 nM
6,"Cc1c(-c2cc3nc(Nc4ccc5c(c4)CN(C)CC5)ncc3c(N)c2F)cnc2c1NCCO2 [WO2022098806, Compound 2-70]",0.05 nM
7,"COc1ccccc1Nc1ncc2c(N)c(F)c(-c3cnc4c(c3C)NCCO4)cc2n1 [WO2022098806, Compound 2-71]",0.25 nM
8,"COc1cc2c(cc1Nc1ncc3c(N)c(F)c(-c4cnc5c(c4C)NCCO5)cc3n1)CN(C(C)C)CC2 [WO2022098806, Compound 2-72]",0.12 nM
9,"CNC(=O)c1ccc(Nc2ncc3c(N)c(F)c(-c4cnc5c(c4C)NCCO5)cc3n2)c(OC)c1 [WO2022098806, Compound 2-74]",0.27 nM
10,"COc1cc2c(cc1Nc1ncc3c(N)c(F)c(-c4cnc5c(c4C)NCCO5)cc3n1)CN(C)CC2(C)C [WO2022098806, Compound 2-75]",0.33 nM
11,"Cc1c(-c2cc3nc(Nc4ccc5c(c4)CN(C(C)C)CC5)ncc3c(N)c2F)cnc2c1NCCO2 [WO2022098806, Compound 2-76]",0.03 nM
12,"Cc1c(-c2cc3nc(Nc4ccc5c(c4)C4CC5CN4C)ncc3c(N)c2F)cnc2c1NCCO2 (centres undefined) [WO2022098806, Compound 2-79]",0.03 nM
13,"CNC(=O)C1(c2ccc(Nc3ncc4c(N)c(F)c(-c5cnc6c(c5C)NCCO6)cc4n3)cc2)CCCCC1 [WO2022098806, Compound 2-80]",0.07 nM
14,"CNC(=O)C1(c2ccc(Nc3ncc4c(N)c(F)c(-c5cnc6c(c5C)NCCO6)cc4n3)cc2)CC1 [WO2022098806, Compound 2-81]",0.04 nM
15,"CNC(=O)C1(c2ccc(Nc3ncc4c(N)c(F)c(-c5cnc6c(c5C)NCCO6)cc4n3)cc2)CCC1 [WO2022098806, Compound 2-82]",0.03 nM
16,"CNC(=O)C1(c2ccc(Nc3ncc4c(N)c(F)c(-c5cnc6c(c5C)NCCO6)cc4n3)cc2)CCCC1 [WO2022098806, Compound 2-83]",0.04 nM
17,"Cc1c(-c2cc3nc(Nc4ccc(CS(C)(=O)=O)nc4)ncc3c(N)c2F)cnc2c1NCCO2 [WO2022098806, Compound 2-84]",0.02 nM
18,"Cc1c(-c2cc3nc(Nc4ccc5c(c4)CN(C)[C@@H](C)C5)ncc3c(N)c2F)cnc2c1NCCO2 [WO2022098806, Compound 2-85]",0.03 nM
19,"Cc1c(-c2cc3nc(Nc4ccc5c(c4)CN(C)[C@H](C)C5)ncc3c(N)c2F)cnc2c1NCCO2 [WO2022098806, Compound 2-86]",0.04 nM
20,"CCS(=O)(=O)Cc1ccc(Nc2ncc3c(N)c(F)c(-c4cnc5c(c4C)NCCO5)cc3n2)c(OC)c1 [WO2022098806, Compound 2-89]",0.01 nM
21,"CNC(=O)c1ccc(Nc2ncc3c(N)c(F)c(-c4cnc5c(c4C)NCCO5)c(Cl)c3n2)c(OC)c1 [WO2022098806, Compound 2-98]",6.73 nM
22,"Cc1c(-c2c(F)c(N)c3cnc(Nc4ccc5c(c4)CN(C(C)C)CC5)nc3c2Cl)cnc2c1NCCO2 [WO2022098806, Compound 2-102]",0.08 nM and 0.2 nM and 0.04 nM
23,"Cc1c(-c2c(F)c(N)c3cnc(Nc4ccc(S(C)(=O)=O)cc4)nc3c2Cl)cnc2c1NCCO2 [WO2022098806, Compound 2-103]",0.09 nM
24,"COc1cc2c(cc1Nc1ncc3c(N)c(F)c(-c4cnc5c(c4C)NCCO5)c(Cl)c3n1)CN(C(C)C)CC2 [WO2022098806, Compound 2-106]",0.07 nM

# From BindingDB's records for patent WO2022098806 (MERCK SHARP & DOHME LLC, 2022)
